Measured values taken from PMC11501026, “L-Arginine and asymmetric dimethylarginine (ADMA) transport across the mouse blood-brain and blood-CSF barriers: Evidence of saturable transport at both interfaces and CNS to blood efflux” (PLOS ONE, 2024).
Values joined by “and” are separate entries in the source; they are usually repeats but may differ in a detail not shown here. Identical values can stand only once. Like-named read-outs stand apart in the source and are kept apart here.

Assays:
Type in all cases: in vivo, mouse
[1] = capillary depletion analysis after in situ brain perfusion; design: [3H] ADMA and [14C] Sucrose uptake, homogenate / Difference (ADMA minus Sucrose), homogenate / [3H] ADMA and [14C] Sucrose uptake, supernatant / Difference (ADMA minus Sucrose), supernatant / uptake, homogenate / uptake, supernatant: unit not given here; conditions: for Kp at 30 min: other: in situ brain perfusion with artificial plasma
Experimental: The microvasculature within a sample of brain tissue can be separated from the brain parenchyma using capillary depletion analysis. Following perfusion, the remaining brain tissue after microdissection of the regions described above (typically 200–300 mg) underwent capillary depletion following a method modified for mouse. […]

[2] = cross-inhibition, in situ perfusion: [^3H]-arginine with 0.5–500 μM unlabelled ADMA; conditions: male, mouse, 10 mins, Balb/c ♂, 5ml/min
Experimental: (§1) Self-inhibition experiments were also performed. […] Cross-competition experiments were also performed.
(§2) The percentage change in the RTissue uptake values achieved in the absence or presence of an unlabelled inhibitor can be calculated by means of Eq 4.
(§3) %change=RTissue−RInhibition/RTissue×100 Eq 4
(§4) We define RInhibition as the RTissue uptake in the presence of an inhibitor in the artificial plasma.
(§5) A decrease in the uptake of radiolabelled solute in the presence of unlabelled inhibitor is indicative of a saturable influx transport system. Conversely, an increase in the uptake of radiolabelled solute in the presence of unlabelled inhibitor is indicative of a saturable efflux transport system.
Concentrations of ADMA were specifically selected to mimic plasma concentrations under normal conditions (0.5 μM), pathophysiological conditions (3.0 μM), and then supraphysiological concentrations (10, 100 and 500 μM).

[3] = tested on: [^3H]-arginine transport across the blood-brain and blood-CSF barriers; test: self-inhibition, in situ perfusion: [^3H]-arginine with 100 μM unlabelled L-arginine; conditions: +100uM Un-labelled arginine, 10 mins, Balb/c ♂, 5ml/min; single mouse
Experimental: as §1, §2, §3, §4, §5

[4] = as above; conditions: male, Balb/c, mouse, other: in situ brain perfusion, with 100 µM unlabelled L-arginine, +100uM Un-labelled arginine, 10 mins, Balb/c ♂, 5ml/min
Experimental: as §1, §2, §3, §4, §5

With `OC[C@H]1O[C@@](CO)(O[C@H]2O[C@H](CO)[C@@H](O)[C@H](O)[C@H]2O)[C@@H](O)[C@@H]1O` [[^14C]-sucrose, reference compound] the “[3H] ADMA and [14C] Sucrose uptake, supernatant” value ([1]; 2.5 mins, Balb/c ♂, 5ml/min, individual mouse) was 0.005063, the “uptake, pellet” value ([1]; [3H] ADMA + [14C] Sucrose, 30 mins, Balb/c ♂, 5ml/min, individual mice) was 0.004118 and 0.004644 and 0.005073 and the Kp at 20 min, 62.5 nM ([1]; male, BALB/c, mouse, capillary depletion pellet (endothelial cell-enriched), [3H] ADMA and [14C] Sucrose uptake, pellet, 20 mins, 5ml/min, mean) was 0.00274. For the same compound, the Kp at 30 min ([1]; male, BALB/c, mouse, capillary depletion pellet (endothelial cell-enriched), pellet: [14C] Sucrose, 30 mins, Balb/c ♂, 5ml/min, single mouse) was 0.00943, the Kp at […] ([1]; male, BALB/c, mouse, capillary depletion supernatant (brain parenchyma), [3H] ADMA and [14C] Sucrose uptake, supernatant, 2.5 mins, 5ml/min, mean) was 0.0098 and the Kp at […] ([1]; male, BALB/c, mouse, endothelial cell-enriched pellet (capillary depletion), [3H] ADMA and [14C] Sucrose uptake, pellet, 2.5 mins, 5ml/min, mean) was 0.00237. The Kp at 30 min, 62.5 nM ([1]; male, BALB/c, mouse, endothelial cell-enriched pellet (capillary depletion), other: in situ brain perfusion, [3H] ADMA + [14C] Sucrose, 30 mins, Balb/c ♂, 5ml/min, individual mice, read-out: uptake, pellet) was 0.00308, the Kp at 30 min, 62.5 nM ([1]; male, BALB/c, mouse, endothelial cell-enriched pellet (capillary depletion), other: in situ brain perfusion, [3H] ADMA + [14C] Sucrose, 30 mins, Balb/c ♂, 5ml/min, mean, read-out: uptake, pellet) was 0.00455 and the Kp at […] ([1]; male, BALB/c, mouse, endothelial cell-enriched pellet (capillary depletion), pellet, 2.5 mins, uncorrected, given as fraction, read-out: tissue or CSF to plasma ratio (mean)) was 0.00218. The Kp at 10 min ([1]; male, BALB/c, mouse, endothelial cell-enriched pellet (capillary depletion), pellet, 10 mins, uncorrected, given as fraction, read-out: tissue or CSF to plasma ratio (mean)) was 0.00461, the Kp at 30 min ([1]; male, BALB/c, mouse, whole-brain homogenate (capillary depletion), homogenate: [14C] Sucrose, 30 mins, Balb/c ♂, 5ml/min, mean) was 0.0653 and the Kp at 30 min, 62.5 nM ([1]; male, BALB/c, mouse, whole-brain homogenate (capillary depletion), other: in situ brain perfusion, [3H] ADMA + [14C] Sucrose, 30 mins, Balb/c ♂, 5ml/min, mean, read-out: uptake, homogenate) was 0.0336. For the same compound, the Kp at 10 min, 62.5 nM ([1]; male, BALB/c, mouse, whole-brain homogenate (capillary depletion), other: in situ brain perfusion, [3H] ADMA and [14C] Sucrose uptake, homogenate, CONTROL, 10 mins, Balb/c ♂, 5ml/min, mean) was 0.0971, the Kp at 10 min ([1]; male, Balb/c, mouse, endothelial cell-enriched pellet after capillary depletion, other: in situ brain perfusion, with unlabelled ADMA 3 µM, Arginine / Sucrose uptake, pellet, mean, [3H] Arginine + [14C] Sucrose + 3 uM ADMA, 10 mins, Balb/c ♂, 5ml/min, mean) was 0.00326 and the Kp at 10 min ([1]; male, Balb/c, mouse, endothelial cell-enriched pellet after capillary depletion, other: in situ brain perfusion, with unlabelled ADMA 10 µM, Arginine / Sucrose uptake, pellet, mean, [3H] Arginine + [14C] Sucrose + 10 uM ADMA, 10 mins, Balb/c ♂, 5ml/min, mean) was 0.00425. The Kp at 10 min ([1]; male, Balb/c, mouse, endothelial cell-enriched pellet, other: in situ brain perfusion, with unlabelled ADMA 100 µM, Arginine / Sucrose uptake, pellet, mean, [3H] Arginine + [14C] Sucrose + 100µM un-labelled ADMA, 10 mins, Balb/c ♂, 5ml/min, mean) was 0.00383, the Kp at 10 min ([1]; male, Balb/c, mouse, supernatant (brain parenchyma) after capillary depletion, other: in situ brain perfusion, with unlabelled ADMA 3 µM, Arginine / Sucrose uptake, supernatant, mean, [3H] Arginine + [14C] Sucrose + 3 uM ADMA, 10 mins, Balb/c ♂, 5ml/min, mean) was 0.0159 and the Kp at 10 min ([1]; male, Balb/c, mouse, supernatant (brain parenchyma), other: in situ brain perfusion, with unlabelled ADMA 100 µM, Arginine / Sucrose uptake, supernatant, [3H] Arginine + [14C] Sucrose + 100µM un-labelled ADMA, 10 mins, Balb/c ♂, 5ml/min, single mice) was 0.0158. It also gave a Kp at 10 min ([2]; BALB/c, other: in situ brain perfusion with artificial plasma, with unlabelled ADMA 500 µM, [3H] Arginine and [14C] Sucrose uptake, pellet, + 500µM un-labelled ADMA, mean) of 0.00271, a Kp at 10 min ([2]; BALB/c, thalamus, other: in situ brain perfusion with artificial plasma, with unlabelled ADMA 500 µM, [3H] Arginine and [14C] Sucrose uptake, thalamus, + 500µM un-labelled ADMA, mean) of 0.034 and a Kp at 10 min ([2]; Balb/c, CSF, other: in situ brain perfusion, with unlabelled ADMA 100 µM, Arginine / Sucrose uptake, CSF, mean, [3H] Arginine + [14C] Sucrose + 100µM un-labelled ADMA, mean) of 0.149. It also gave a Kp at 10 min ([2]; Balb/c, caudate nucleus, other: in situ brain perfusion, with unlabelled ADMA 10 µM, Arginine / Sucrose uptake, caudate nucleus, mean, [3H] Arginine + [14C] Sucrose + 10 uM ADMA, mean) of 0.0357, a Kp at 10 min ([2]; Balb/c, cerebellum, other: in situ brain perfusion, with unlabelled ADMA 0.5 µM, cerebellum: [14C] Sucrose, + 0.5 uM ADMA, mean) of 0.0327 and a Kp at 10 min ([2]; Balb/c, choroid plexus, other: in situ brain perfusion, with 0.5 µM unlabelled ADMA, choroid plexus: [14C] Sucrose, + 0.5 uM ADMA, mean) of 0.162. The Kp at 10 min ([2]; Balb/c, frontal cortex, other: in situ brain perfusion, with unlabelled ADMA 3 µM, Arginine / Sucrose uptake, frontal cortex, [3H] Arginine + [14C] Sucrose + 3 uM ADMA, single mice) was 0.0326, the Kp at 10 min ([2]; Balb/c, hypothalamus, other: in situ brain perfusion, with unlabelled ADMA 3 µM, Arginine / Sucrose uptake, hypothalamus, mean, [3H] Arginine + [14C] Sucrose + 3 uM ADMA, mean) was 0.0456 and the Kp at 10 min ([2]; Balb/c, hypothalamus, other: in situ brain perfusion, with unlabelled ADMA 10 µM, Arginine / Sucrose uptake, hypothalamus, mean, [3H] Arginine + [14C] Sucrose + 10 uM ADMA, mean) was 0.074. For the same compound, the Kp at 10 min ([2]; Balb/c, hypothalamus, other: in situ brain perfusion, with unlabelled ADMA 100 µM, Arginine / Sucrose uptake, hypothalamus, mean, [3H] Arginine + [14C] Sucrose + 100µM un-labelled ADMA, mean) was 0.0349, the Kp at 10 min ([2]; Balb/c, pellet (cerebral capillary endothelial cells), other: in situ brain perfusion, with unlabelled ADMA 0.5 µM, pellet: [14C] Sucrose, + 0.5 uM ADMA, mean) was 0.00977 and the Kp at 10 min ([2]; Balb/c, pineal gland, other: in situ brain perfusion, with unlabelled ADMA 10 µM, Arginine / Sucrose uptake, pineal gland, mean, [3H] Arginine + [14C] Sucrose + 10 uM ADMA, mean) was 0.504. The Kp at 10 min ([2]; Balb/c, pituitary gland, other: in situ brain perfusion, with 0.5 µM unlabelled ADMA, pituitary gland: [14C] Sucrose, + 0.5 uM ADMA, mean) was 0.13, the Kp at 10 min ([2]; Balb/c, pituitary gland, other: in situ brain perfusion, with unlabelled ADMA 3 µM, Arginine / Sucrose uptake, pituitary gland, mean, [3H] Arginine + [14C] Sucrose + 3 uM ADMA, mean) was 0.146 and the Kp at 10 min ([2]; Balb/c, pons, other: in situ brain perfusion, with unlabelled ADMA 0.5 µM, pons: [14C] Sucrose, + 0.5 uM ADMA, mean) was 0.0597. The Kp at 10 min ([2]; Balb/c, pons, other: in situ brain perfusion, with unlabelled ADMA 3 µM, Arginine / Sucrose uptake, pons, mean, [3H] Arginine + [14C] Sucrose + 3 uM ADMA, mean) was 0.0612, the Kp at 10 min ([2]; Balb/c, pons, other: in situ brain perfusion, with unlabelled ADMA 10 µM, Arginine / Sucrose uptake, pons, mean, [3H] Arginine + [14C] Sucrose + 10 uM ADMA, mean) was 0.0764 and the Kp at 10 min ([2]; Balb/c, thalamus, other: in situ brain perfusion, with unlabelled ADMA 10 µM, Arginine / Sucrose uptake, thalamus, mean, [3H] Arginine + [14C] Sucrose + 10 uM ADMA, mean) was 0.0352. The “pellet: [14C] Sucrose” value [3] was 0.001001 and 0.002262 and 0.003661 and 0.002471 and 0.002325, the Kp at 10 min ([4]; pellet, pellet: [14C] Sucrose, mean) was 0.00699 and the Kp at 10 min ([4]; pituitary gland, pituitary gland: [14C] Sucrose, mean) was 0.151. The Kp at 10 min ([4]; pons, pons: [14C] Sucrose, mean) was 0.0326 and the Kp at 10 min ([4]; supernatant, supernatant: [14C] Sucrose, single mouse) was 0.0159.
